From ChEMBL document CHEMBL3632477 (2015)
Where a SMILES comes first, the peptide text is derived from it. Bridges are numbered along the chain shown (N, C = ends). [ ]: non-standard residue; d: D form. ξ: configuration not given here. Bip(2'-Et-4'-OMe) = CCc1cc(OC)ccc1-c1ccc(C[C@H](N)C(=O)O)cc1; αMePhe(2,6-F2) = C[C@](N)(Cc1c(F)cccc1F)C(=O)O; αMePhe(2-F) = C[C@](N)(Cc1ccccc1F)C(=O)O; hhPhe = N[C@@H](CCCc1ccccc1)C(=O)O; αMeF = C[C@](N)(Cc1ccccc1)C(=O)O; ξαMeF = CC(N)(Cc1ccccc1)C(=O)O; Pen = CC(C)(S)[C@H](N)C(=O)O; Aib = CC(C)(N)C(=O)O

Target: Glucagon-like peptide 1 receptor (Homo sapiens, UniProt P43220)
Sequence (P43220 whole entry): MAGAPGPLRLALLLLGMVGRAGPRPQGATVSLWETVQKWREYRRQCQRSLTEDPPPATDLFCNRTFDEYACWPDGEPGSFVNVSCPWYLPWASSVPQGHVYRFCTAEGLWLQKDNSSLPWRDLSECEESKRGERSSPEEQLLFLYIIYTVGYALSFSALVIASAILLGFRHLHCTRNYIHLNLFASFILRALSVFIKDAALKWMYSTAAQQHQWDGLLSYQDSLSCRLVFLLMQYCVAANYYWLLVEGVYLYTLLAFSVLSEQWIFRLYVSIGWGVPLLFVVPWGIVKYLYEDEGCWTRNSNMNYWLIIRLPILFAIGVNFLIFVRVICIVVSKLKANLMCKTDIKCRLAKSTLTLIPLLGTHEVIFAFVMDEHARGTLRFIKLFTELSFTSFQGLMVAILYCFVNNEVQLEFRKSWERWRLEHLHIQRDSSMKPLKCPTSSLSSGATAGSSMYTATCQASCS
Experiment: Agonist activity at human GLP-1R expressed in CHO-K1 cells assessed as increase in cAMP level incubated for 30 mins
Assay type: functional, cell-based

SMILES	EC50 [µM]
CCc1cc(OC)ccc1-c1ccc(C[C@H](NC(=O)[C@H](CC(=O)O)NC(=O)[C@H](CO)NC(=O)[C@@H](NC(=O)[C@](C)(Cc2ccccc2F)NC(=O)[C@H](CS)NC(=O)CNC(=O)[C@H](CCC(=O)O)NC(=O)C(C)(C)NC(=O)[C@@H](N)Cc2cnc[nH]2)[C@@H](C)O)C(=O)N[C@@H](CCCc2ccccc2)C(=O)N[C@H](CS)C(N)=O)cc1	> 1
CCc1cc(OC)ccc1-c1ccc(C[C@@H]2NC(=O)[C@H](CC(=O)O)NC(=O)[C@H](CO)NC(=O)[C@@H]3CSSC[C@@H](C(=O)O)NC(=O)[C@H](CSSC[C@H](NC(=O)CNC(=O)[C@H](CCC(=O)O)NC(=O)C(C)(C)NC(=O)[C@@H](N)Cc4cnc[nH]4)C(=O)NC(C)(Cc4ccccc4)C(=O)N3)NC(=O)[C@H](CC(C)C)NC(=O)[C@H](CCCc3ccccc3)NC2=O)cc1 (stereo partly specified) (H-H[Aib]EGC[ξαMeF]CSD[Bip(2'-Et-4'-OMe)][hhPhe]LCC-OH; disulfide 5-13, 7-14)	1.6
CCc1cc(OC)ccc1-c1ccc(C[C@@H]2NC(=O)[C@H](CC(=O)O)NC(=O)[C@H](CO)NC(=O)[C@@H]3CSSC[C@@H](C(=O)O)NC(=O)[C@H](CSSC[C@H](NC(=O)CNC(=O)[C@H](CCC(=O)O)NC(=O)C(C)(C)NC(=O)[C@H](Cc4cnc[nH]4)NC(C)=O)C(=O)N[C@@](C)(Cc4c(F)cccc4F)C(=O)N3)NC(=O)[C@H](CC(C)C)NC(=O)[C@H](CCCc3ccccc3)NC2=O)cc1 (Ac-H[Aib]EGC[αMePhe(2,6-F2)]CSD[Bip(2'-Et-4'-OMe)][hhPhe]LCC-OH; disulfide 5-13, 7-14)	0.069
CCc1cc(OC)ccc1-c1ccc(C[C@@H]2NC(=O)[C@H](CC(=O)O)NC(=O)[C@H](CO)NC(=O)[C@H]([C@@H](C)O)NC(=O)[C@](C)(Cc3c(F)cccc3F)NC(=O)[C@H]([C@@H](C)O)NC(=O)CNC(=O)[C@H](CCC(=O)O)NC(=O)[C@@H]3CCCN3C(=O)[C@H](Cc3cnc[nH]3)NC(=O)[C@H](CO)NC(=O)[C@@H]3CSSC[C@H](NC(=O)[C@H](CCCc4ccccc4)NC2=O)C(=O)NCC(=O)NCC(=O)N[C@@H](C)C(=O)N[C@@H](C)C(=O)NCC(=O)NCC(=O)NCC(=O)N[C@@H](C)C(=O)N3)cc1 (cyclo(AAGGGACSHPEGT[αMePhe(2,6-F2)]TSD[Bip(2'-Et-4'-OMe)][hhPhe]CGG); disulfide 7-20)	0.43
CCc1cc(OC)ccc1-c1ccc(C[C@H](NC(=O)[C@H](CC(=O)O)NC(=O)[C@H](CS)NC(=O)[C@@H](NC(=O)[C@](C)(Cc2ccccc2F)NC(=O)[C@@H](NC(=O)CNC(=O)[C@H](CCC(=O)O)NC(=O)C(C)(C)NC(=O)[C@@H](N)Cc2cnc[nH]2)[C@@H](C)O)[C@@H](C)O)C(=O)N[C@@H](CCCc2ccccc2)C(=O)N[C@H](CS)C(N)=O)cc1	1.15
CCc1cc(OC)ccc1-c1ccc(C[C@H](NC(=O)[C@H](CC(=O)O)NC(=O)[C@H](CO)NC(=O)[C@@H](NC(=O)[C@](C)(Cc2c(F)cccc2F)NC(=O)[C@@H](NC(=O)CNC(=O)[C@H](CCC(=O)O)NC(=O)[C@@H]2CCCN2C(=O)[C@@H](N)Cc2cnc[nH]2)[C@@H](C)O)[C@@H](C)O)C(=O)N[C@@H](CCCc2ccccc2)C(=O)N[C@H]2CSSC[C@@H](C(=O)N[C@@H](CO)C(N)=O)NC(=O)[C@H](C)NC(=O)CNC(=O)CNC(=O)CNC(=O)[C@H](C)NC(=O)[C@H](C)NC(=O)CNC(=O)CNC2=O)cc1 (H-HPEGT[αMePhe(2,6-F2)]TSD[Bip(2'-Et-4'-OMe)][hhPhe]CGGAAGGGACS-NH2; disulfide 12-21)	0.013
CCc1cc(OC)ccc1-c1ccc(C[C@@H]2NC(=O)[C@H](CC(=O)O)NC(=O)[C@H](CO)NC(=O)[C@H]([C@@H](C)O)NC(=O)[C@](C)(Cc3c(F)cccc3F)NC(=O)[C@H]([C@@H](C)O)NC(=O)CNC(=O)[C@H](CCC(=O)O)NC(=O)[C@@H]3CCCN3C(=O)[C@H](Cc3cnc[nH]3)NC(=O)[C@H](CO)NC(=O)[C@H](C(C)(C)S)NC(=O)[C@H](C)NC(=O)CNC(=O)CNC(=O)CNC(=O)[C@H](C)NC(=O)[C@H](C)NC(=O)CNC(=O)CNC(=O)[C@H](C(C)(C)S)NC(=O)[C@H](CCCc3ccccc3)NC2=O)cc1 (cyclo(AAGGGA[Pen]SHPEGT[αMePhe(2,6-F2)]TSD[Bip(2'-Et-4'-OMe)][hhPhe][Pen]GG))	2
CCc1cc(OC)ccc1-c1ccc(C[C@@H]2NC(=O)[C@H](CC(=O)O)NC(=O)[C@H](CO)NC(=O)[C@H]([C@@H](C)O)NC(=O)[C@](C)(Cc3c(F)cccc3F)NC(=O)[C@H]([C@@H](C)O)NC(=O)CNC(=O)[C@H](CCC(=O)O)NC(=O)C(C)(C)NC(=O)[C@H](Cc3cnc[nH]3)NC(=O)[C@H](CO)NC(=O)[C@@H]3CSSC[C@H](NC(=O)[C@H](CCCc4ccccc4)NC2=O)C(=O)NCC(=O)NCC(=O)N[C@@H](C)C(=O)N[C@@H](C)C(=O)NCC(=O)NCC(=O)NCC(=O)N[C@@H](C)C(=O)N3)cc1 (cyclo(AAGGGACSH[Aib]EGT[αMePhe(2,6-F2)]TSD[Bip(2'-Et-4'-OMe)][hhPhe]CGG); disulfide 7-20)	1.4
CC(C)C[C@@H]1NC(=O)[C@H](Cc2ccccc2)NC(=O)[C@H](CC(N)=O)NC(=O)[C@H](CCCNC(=N)N)NC(=O)[C@H](CCCCN)NC(=O)[C@@H]2CSSC[C@@H](C(N)=O)NC(=O)[C@H](CSSC[C@H](NC(=O)[C@@H](N)CO)C(=O)N[C@@H](CO)C(=O)N2)NC1=O (H-SCSCKRNFLCC-NH2; disulfide 2-10, 4-11)	0.00047
CCc1cc(OC)ccc1-c1ccc(C[C@H](NC(=O)[C@H](CC(=O)O)NC(=O)[C@H](CO)NC(=O)[C@@H](NC(=O)[C@](C)(Cc2c(F)cccc2F)NC(=O)[C@@H](NC(=O)CNC(=O)[C@H](CCC(=O)O)NC(=O)[C@@H]2CCCN2C(=O)[C@@H](N)Cc2cnc[nH]2)[C@@H](C)O)[C@@H](C)O)C(=O)N[C@@H](CCCc2ccccc2)C(=O)N[C@H](C(=O)NCC(=O)NCC(=O)N[C@@H](C)C(=O)N[C@@H](C)C(=O)NCC(=O)NCC(=O)NCC(=O)N[C@@H](C)C(=O)N[C@H](C(=O)N[C@@H](CO)C(=O)O)C(C)(C)S)C(C)(C)S)cc1 (H-HPEGT[αMePhe(2,6-F2)]TSD[Bip(2'-Et-4'-OMe)][hhPhe][Pen]GGAAGGGA[Pen]S-OH)	0.0025
CCc1cc(OC)ccc1-c1ccc(C[C@@H]2NC(=O)[C@H](CC(=O)O)NC(=O)[C@H](CO)NC(=O)[C@H]([C@@H](C)O)NC(=O)[C@](C)(Cc3ccccc3)NC(=O)[C@H]([C@@H](C)O)NC(=O)CNC(=O)[C@H](CCC(=O)O)NC(=O)[C@@H]3CCCN3C(=O)[C@H](Cc3cnc[nH]3)NC(=O)[C@H](CO)NC(=O)[C@@H]3CSSC[C@H](NC(=O)[C@H](CCCc4ccccc4)NC2=O)C(=O)NCC(=O)NCC(=O)N[C@@H](C)C(=O)N[C@@H](C)C(=O)NCC(=O)NCC(=O)NCC(=O)N[C@@H](C)C(=O)N3)cc1 (cyclo(AAGGGACSHPEGT[αMeF]TSD[Bip(2'-Et-4'-OMe)][hhPhe]CGG); disulfide 7-20)	2
CCc1cc(OC)ccc1-c1ccc(C[C@@H]2NC(=O)[C@H](CC(=O)O)NC(=O)[C@H](CO)NC(=O)[C@H]([C@@H](C)O)NC(=O)[C@](C)(Cc3ccccc3F)NC(=O)[C@H]([C@@H](C)O)NC(=O)CNC(=O)[C@H](CCC(=O)O)NC(=O)[C@@H]3CCCN3C(=O)[C@H](Cc3cnc[nH]3)NC(=O)[C@H](CO)NC(=O)[C@@H]3CSSC[C@H](NC(=O)[C@H](CCCc4ccccc4)NC2=O)C(=O)NCC(=O)NCC(=O)N[C@@H](C)C(=O)N[C@@H](C)C(=O)NCC(=O)NCC(=O)NCC(=O)N[C@@H](C)C(=O)N3)cc1 (cyclo(AAGGGACSHPEGT[αMePhe(2-F)]TSD[Bip(2'-Et-4'-OMe)][hhPhe]CGG); disulfide 7-20)	1
CCc1cc(OC)ccc1-c1ccc(C[C@@H]2NC(=O)[C@H](CC(=O)O)NC(=O)[C@H](CO)NC(=O)[C@@H]3CSSC[C@@H](C(=O)O)NC(=O)[C@H](CSSC[C@H](NC(=O)CNC(=O)[C@H](CCC(=O)O)NC(=O)C(C)(C)NC(=O)[C@@H](N)Cc4cnc[nH]4)C(=O)N[C@@H](Cc4ccccc4)C(=O)N3)NC(=O)[C@H](CC(C)C)NC(=O)[C@H](CCCc3ccccc3)NC2=O)cc1 (H-H[Aib]EGCFCSD[Bip(2'-Et-4'-OMe)][hhPhe]LCC-OH; disulfide 5-13, 7-14)	16
CCc1cc(OC)ccc1-c1ccc(C[C@@H]2NC(=O)[C@H](CC(=O)O)NC(=O)[C@H](CO)NC(=O)[C@H]([C@@H](C)O)NC(=O)[C@](C)(Cc3ccccc3)NC(=O)[C@H]([C@@H](C)O)NC(=O)CNC(=O)[C@H](CCC(=O)O)NC(=O)[C@@H]3CCCN3C(=O)[C@H](Cc3cnc[nH]3)NC(=O)[C@H](CO)NC(=O)[C@@H]3CSSC[C@H](NC(=O)[C@H](CCCc4ccccc4)NC2=O)C(=O)NCC(=O)NCC(=O)N[C@@H](CC(C)C)C(=O)N[C@@H](CC(C)C)C(=O)N[C@@H](CC(C)C)C(=O)NCC(=O)N[C@@H](CC(C)C)C(=O)N[C@@H](CC(C)C)C(=O)N3)cc1 (cyclo(CGGLLLGLLCSHPEGT[αMeF]TSD[Bip(2'-Et-4'-OMe)][hhPhe]); disulfide 1-10)	2.8
CCc1cc(OC)ccc1-c1ccc(C[C@@H]2NC(=O)[C@H](CC(=O)O)NC(=O)[C@H](CO)NC(=O)[C@H]([C@@H](C)O)NC(=O)[C@H](Cc3ccccc3)NC(=O)[C@H]([C@@H](C)O)NC(=O)CNC(=O)[C@H](CCC(=O)O)NC(=O)[C@@H]3CCCN3C(=O)[C@H](Cc3cnc[nH]3)NC(=O)[C@H](CO)NC(=O)[C@@H]3CSSC[C@H](NC(=O)[C@H](CCCc4ccccc4)NC2=O)C(=O)NCC(=O)NCC(=O)N[C@@H](C)C(=O)N[C@@H](C)C(=O)NCC(=O)NCC(=O)NCC(=O)N[C@@H](C)C(=O)N3)cc1 (cyclo(AAGGGACSHPEGTFTSD[Bip(2'-Et-4'-OMe)][hhPhe]CGG); disulfide 7-20)	0.39
CCc1cc(OC)ccc1-c1ccc(C[C@@H]2NC(=O)[C@H](CC(=O)O)NC(=O)[C@H](CO)NC(=O)[C@H]([C@@H](C)O)NC(=O)[C@](C)(Cc3c(F)cccc3F)NC(=O)[C@H]([C@@H](C)O)NC(=O)CNC(=O)[C@H](CCC(=O)O)NC(=O)[C@@H]3CCCN3C(=O)[C@H](Cc3cnc[nH]3)NC(=O)[C@H](CO)NC(=O)[C@@H]3CSSC[C@H](NC(=O)[C@H](CCCc4ccccc4)NC2=O)C(=O)NCC(=O)NCC(=O)N[C@@H](C(C)C)C(=O)N[C@@H](C(C)C)C(=O)N[C@@H](C(C)C)C(=O)NCC(=O)N[C@@H](C(C)C)C(=O)N[C@@H](C(C)C)C(=O)N3)cc1 (cyclo(CGGVVVGVVCSHPEGT[αMePhe(2,6-F2)]TSD[Bip(2'-Et-4'-OMe)][hhPhe]); disulfide 1-10)	1
